Source: patent US20210387978A1, “CYCLOBUTYL DIHYDROQUINOLINE SULFONAMIDE COMPOUNDS” (AMGEN INC., priority 2020, published 2021)

These compounds were tested against T1, Human Nav1.7 (Homo sapiens, UniProt Q15858) (assay: IonWorks Barracuda (IWB) automated patch clamp assay). Settings: human Nav1.7 currents, HEK cells, population patch-clamp, state- and use-dependent voltage protocol; read-out: hNaV1.7 IWB-U IC50.
T1 construct: expressed in transfected cells; host or cells: Spiking HEK cells (without Kir2.1 transfection)
Format: cell-based
Method: Ionaworks Barracuda […] Automated Patch Clamp Assay (Same Protocol for Both Human and Mouse)
Human Nav1.7 currents were recorded in population patch-clamp mode with the IWB automated electrophysiology system (Molecular Devices, LLC, Sunnyvale, Calif.). Spiking HEK cells (without Kir2.1 transfection) were cultured and prepared for recordings as previously described for IonWorks Quattro testing^1. The external solution consisted of the following (in mM): NaCl 140, KCl 5, CaCl2 2, MgCl2 1, HEPES 10, and glucose 11, pH 7.4, with N-methyl-D-glucamine at 320 mOsmol. […] From a holding potential of −110 mV, currents were elicited by a train of 26 depolarizations of 150 ms duration to −20 mV at a frequency of 5 Hz. Cells were then clamped to −20 mV for a period of 4 minutes in the presence of a single concentration of test compound. Following this compound incubation period, cells were clamped to −110 mV for three seconds to recover unbound channels and put through the same 26 pulse voltage protocol as above. Peak inward current during the 26th pulse to −20 mV in the presence of compound was divided by the peak inward current evoked by the 26th pulse to −20 mV in the absence of compound to determine percent inhibition. Concentration-response curves of percent inhibition as a function of concentration were generated to calculate IC50 values as described in Kornecook, T. J.; Yin, R.; Altmann, S.; et al. Pharmacologic Characterization of AMG8379, a Potent and Selective Small Molecule Sulfonamide Antagonist of the Voltage-Gated Sodium Channel NaV1. 7.
The potency of the compounds of the present invention were evaluated on human Nav1.7 channels using the above described IonWorks Barracuda automated electrophysiology platform that evaluates the ability of compounds to block sodium conductance through Nav1.7 channels. A voltage-protocol that prosecutes both state-dependent as well as use-dependent inhibition was used as these modes of action are thought to be more relevant for the native state of Nav1.7 channels in pain sensing neurons in vivo.

T1 sequence (Q15858 whole entry): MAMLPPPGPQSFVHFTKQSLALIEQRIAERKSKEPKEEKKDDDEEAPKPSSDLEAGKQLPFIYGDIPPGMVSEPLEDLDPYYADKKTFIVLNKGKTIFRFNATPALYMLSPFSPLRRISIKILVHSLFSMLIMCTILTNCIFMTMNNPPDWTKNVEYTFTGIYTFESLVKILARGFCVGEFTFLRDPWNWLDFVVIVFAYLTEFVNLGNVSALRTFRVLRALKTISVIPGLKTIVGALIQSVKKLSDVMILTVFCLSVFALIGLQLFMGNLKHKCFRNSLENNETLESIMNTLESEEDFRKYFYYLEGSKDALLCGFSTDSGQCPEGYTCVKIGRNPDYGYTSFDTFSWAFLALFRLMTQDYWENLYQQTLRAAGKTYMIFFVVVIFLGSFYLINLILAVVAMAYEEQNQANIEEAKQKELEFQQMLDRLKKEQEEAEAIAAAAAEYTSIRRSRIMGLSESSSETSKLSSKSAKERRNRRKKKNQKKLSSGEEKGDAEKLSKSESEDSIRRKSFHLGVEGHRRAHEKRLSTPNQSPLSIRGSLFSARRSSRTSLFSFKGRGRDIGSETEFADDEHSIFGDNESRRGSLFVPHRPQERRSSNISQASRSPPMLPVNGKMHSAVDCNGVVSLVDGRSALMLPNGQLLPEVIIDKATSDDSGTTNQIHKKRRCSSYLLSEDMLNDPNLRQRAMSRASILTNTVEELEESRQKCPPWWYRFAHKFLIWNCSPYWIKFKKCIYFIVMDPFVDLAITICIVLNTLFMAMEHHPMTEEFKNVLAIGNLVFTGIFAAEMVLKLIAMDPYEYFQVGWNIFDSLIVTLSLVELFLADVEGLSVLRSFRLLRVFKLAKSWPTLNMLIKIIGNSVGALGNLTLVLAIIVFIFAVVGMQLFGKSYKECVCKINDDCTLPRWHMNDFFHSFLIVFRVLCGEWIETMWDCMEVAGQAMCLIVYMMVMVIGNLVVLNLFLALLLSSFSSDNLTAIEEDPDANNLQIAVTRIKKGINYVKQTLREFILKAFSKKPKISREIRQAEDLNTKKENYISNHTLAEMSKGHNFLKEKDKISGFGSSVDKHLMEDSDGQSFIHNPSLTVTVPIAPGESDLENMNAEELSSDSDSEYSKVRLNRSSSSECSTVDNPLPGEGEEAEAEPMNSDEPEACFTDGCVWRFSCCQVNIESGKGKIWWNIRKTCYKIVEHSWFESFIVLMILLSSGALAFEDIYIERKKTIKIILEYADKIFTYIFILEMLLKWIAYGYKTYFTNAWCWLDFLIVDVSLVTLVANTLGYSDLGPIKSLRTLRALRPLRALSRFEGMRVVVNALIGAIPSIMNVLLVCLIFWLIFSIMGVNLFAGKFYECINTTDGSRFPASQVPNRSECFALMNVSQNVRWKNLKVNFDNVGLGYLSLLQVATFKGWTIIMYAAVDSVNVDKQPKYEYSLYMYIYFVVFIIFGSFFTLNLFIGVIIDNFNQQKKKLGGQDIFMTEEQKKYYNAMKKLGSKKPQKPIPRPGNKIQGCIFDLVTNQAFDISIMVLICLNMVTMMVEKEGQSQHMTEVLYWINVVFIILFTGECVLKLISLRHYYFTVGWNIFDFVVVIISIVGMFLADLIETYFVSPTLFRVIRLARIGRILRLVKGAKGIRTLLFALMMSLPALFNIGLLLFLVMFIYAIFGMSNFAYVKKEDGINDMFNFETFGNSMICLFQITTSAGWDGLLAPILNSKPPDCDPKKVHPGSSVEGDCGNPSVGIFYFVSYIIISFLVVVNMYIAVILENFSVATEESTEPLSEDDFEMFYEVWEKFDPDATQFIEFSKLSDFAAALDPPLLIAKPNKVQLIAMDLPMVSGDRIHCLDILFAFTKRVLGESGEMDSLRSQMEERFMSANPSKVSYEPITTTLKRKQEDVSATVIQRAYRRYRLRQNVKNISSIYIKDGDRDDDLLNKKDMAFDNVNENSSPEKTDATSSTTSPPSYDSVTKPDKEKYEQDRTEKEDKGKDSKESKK

First: COc1cc([C@H]2C[C@H](C(F)(F)F)C2)c(F)cc1-n1c(=O)ccc2cc(S(=O)(=O)Nc3ncccn3)ccc21 (atropisomer, axis not shown; (P)) [Example 15, trans-(P)-1-(5-fluoro-2-methoxy-4-(3-(trifluoromethyl)cyclobutyl)phenyl)-2-oxo-N-(pyrimidin-2-yl)-1,2-dihydroquinoline-6-sulfonamide]
Second: COc1cc([C@H]2C[C@H](C(F)(F)F)C2)c(F)cc1-n1c(=O)ccc2cc(S(=O)(=O)Nc3cccnn3)ccc21 (atropisomer, axis not shown; (P)) [Example 39, trans-(P)-1-(5-fluoro-2-methoxy-4-(3-(trifluoromethyl)cyclobutyl)phenyl)-2-oxo-N-(pyridazin-3-yl)-1,2-dihydroquinoline-6-sulfonamide]
The IC50 of the first is 1.5-fold higher: 17 nM for the first, 11 nM for the second. The second is the more potent here.

First: COc1cc(C2CCC2)c(Cl)cc1-n1c(=O)ccc2cc(S(=O)(=O)Nc3ncco3)ccc21 (atropisomer, axis not shown; (P)) [Example 32, (P)-1-(5-chloro-4-cyclobutyl-2-methoxyphenyl)-N-(oxazol-2-yl)-2-oxo-1,2-dihydroquinoline-6-sulfonamide]
Second: COc1cc(C2CCC2)c(C)cc1-n1c(=O)ccc2cc(S(=O)(=O)Nc3ncco3)ccc21 (atropisomer, axis not shown; (P)) [Example 34, (P)-1-(4-cyclobutyl-2-methoxy-5-methylphenyl)-N-(oxazol-2-yl)-2-oxo-1,2-dihydroquinoline-6-sulfonamide]
The IC50 of the first is 2.8-fold lower: 10 nM for the first, 28 nM for the second.

`COc1cc([C@H]2C[C@H](C(F)(F)F)C2)ccc1-n1c(=O)ccc2cc(S(=O)(=O)Nc3ccon3)ccc21` (atropisomer, axis not shown; (P)) [Example 35, trans-(P)—N-(isoxazol-3-yl)-1-(2-methoxy-4-(3-(trifluoromethyl)cyclobutyl)phenyl)-2-oxo-1,2-dihydroquinoline-6-sulfonamide] and `COc1cc([C@H]2C[C@H](C(F)(F)F)C2)ccc1-n1c(=O)ccc2cc(S(=O)(=O)Nc3cccnn3)ccc21` (atropisomer, axis not shown; (P)) [Example 38, trans-(P)-1-(2-methoxy-4-(3-(trifluoromethyl)cyclobutyl)phenyl)-2-oxo-N-(pyridazin-3-yl)-1,2-dihydroquinoline-6-sulfonamide] are within 1.5-fold of each other in IC50: 20 nM for the first, 21 nM for the second.

First: COc1cc([C@H]2C[C@H](C(F)(F)F)C2)ccc1-n1c(=O)ccc2cc(S(=O)(=O)Nc3ncccn3)ccc21 (atropisomer, axis not shown; (P)) [Example 36, trans-(P)-1-(2-methoxy-4-((1R,3R)-3-(trifluoromethyl)cyclobutyl)phenyl)-2-oxo-N-(pyrimidin-2-yl)-1,2-dihydroquinoline-6-sulfonamide]
Second: COc1cc(C23CC(C(F)(F)F)(C2)C3)c(F)cc1-n1c(=O)ccc2cc(S(=O)(=O)Nc3ncccn3)ccc21 (atropisomer, axis not shown; (P)) [Example 47, (P)-1-(5-fluoro-2-methoxy-4-(3-(trifluoromethyl)bicyclo[1.1.1]pentan-1-yl)phenyl)-2-oxo-N-(pyrimidin-2-yl)-1,2-dihydroquinoline-6-sulfonamide]
The IC50 of the first is 1.8-fold higher: 14 nM for the first, 8 nM for the second.

First: COc1cc([C@H]2C[C@H](C(F)(F)F)C2)c(F)cc1-n1c(=O)ccc2cc(S(=O)(=O)Nc3ccon3)c(F)cc21 (atropisomer, axis not shown; (P)) [Example 40, (P)-7-fluoro-1-(5-fluoro-2-methoxy-4-((1R,3R)-3-(trifluoromethyl)cyclobutyl)phenyl)-N-(isoxazol-3-yl)-2-oxo-1,2-dihydroquinoline-6-sulfonamide]
Second: COc1cc([C@H]2C[C@H](C(F)(F)F)C2)c(F)cc1-n1c(=O)ccc2c(F)c(S(=O)(=O)Nc3ccon3)ccc21 (atropisomer, axis not shown; (P)) [Example 46, trans-(P)-5-fluoro-1-(5-fluoro-2-methoxy-4-(3-(trifluoromethyl)cyclobutyl)phenyl)-N-(isoxazol-3-yl)-2-oxo-1,2-dihydroquinoline-6-sulfonamide]
The IC50 of the first is 1.6-fold lower: 5 nM for the first, 8 nM for the second.

`COc1cc(C2CC(F)(F)C2)c(F)cc1-n1c(=O)ccc2cc(S(=O)(=O)Nc3ccon3)c(F)cc21` (atropisomer, axis not shown; (P)) [Example 41, (P)-1-(4-(3,3-difluorocyclobutyl)-5-fluoro-2-methoxyphenyl)-7-fluoro-N-(isoxazol-3-yl)-2-oxo-1,2-dihydroquinoline-6-sulfonamide] and `COc1cc(C2CC(F)(F)C2)c(Cl)cc1-n1c(=O)ccc2cc(S(=O)(=O)Nc3ccon3)ccc21` (atropisomer, axis not shown; (P)) [Example 48, (P)-1-(5-chloro-4-(3,3-difluorocyclobutyl)-2-methoxyphenyl)-N-(isoxazol-3-yl)-2-oxo-1,2-dihydroquinoline-6-sulfonamide] are within 1.5-fold of each other in IC50: 11 nM for the first, 10 nM for the second.

`COc1cc(C23CC(C(F)(F)F)(C2)C3)c(F)cc1-n1c(=O)ccc2cc(S(=O)(=O)Nc3ccon3)ccc21` (atropisomer, axis not shown; (P)) [Example 42, (P)-1-(5-fluoro-2-methoxy-4-(3-(trifluoromethyl)bicyclo[1.1.1]pentan-1-yl)phenyl)-N-(isoxazol-3-yl)-2-oxo-1,2-dihydroquinoline-6-sulfonamide] and `COc1cc([C@H]2C[C@H](OC(F)(F)F)C2)c(F)cc1-n1c(=O)ccc2cc(S(=O)(=O)Nc3ccon3)ccc21` (single isomer, unassigned) [Example 45, trans-(P)-1-(5-fluoro-2-methoxy-4-(3-(trifluoromethoxy)cyclobutyl)phenyl)-N-(isoxazol-3-yl)-2-oxo-1,2-dihydroquinoline-6-sulfonamide] are within 1.5-fold of each other in IC50: 6 nM for the first, 8 nM for the second.

`COc1cc([C@H]2C[C@H](C(F)(F)F)C2)c(F)cc1-n1c(=O)ccc2cc(S(=O)(=O)Nc3ncco3)ccc21` (atropisomer, axis not shown; (P)) [Example 43, Trans-(P)-1-(5-Fluoro-2-Methoxy-4-(3-(Trifluoromethyl)Cyclobutyl)Phenyl)-N-(Oxazol-2-Yl)-2-Oxo-1,2-Dihydroquinoline-6-Sulfonamide] and `COc1cc([C@H]2C[C@H](C(F)(F)F)C2)c(Cl)cc1-n1c(=O)ccc2cc(S(=O)(=O)Nc3ncco3)ccc21` (atropisomer, axis not shown; (P)) [Example 49, trans (P)-1-(5-chloro-2-methoxy-4-((1R,3R)-3-(trifluoromethyl)cyclobutyl)phenyl)-N-(oxazol-2-yl)-2-oxo-1,2-dihydroquinoline-6-sulfonamide] are within 1.5-fold of each other in IC50: 7 nM for the first, 10 nM for the second.

With `COc1cc(C2CC2)c(F)cc1-n1c(=O)ccc2cc(S(=O)(=O)Nc3ccon3)ccc21` [Compound X, 1-(4-cyclopropyl-5-fluoro-2-methoxyphenyl)-N-(isoxazol-3-yl)-2-oxo-1,2-dihydroquinoline-6-sulfonamide, reference compound] the IC50 was 48 nM.

Each compound was assayed on CYP3A4 (assay: Human CYP 3A4 Induction Assay (mRNA, cryopreserved human hepatocytes)). Settings: 10 uM test compound, 72 hours, percent of control (POC), rifampin positive control.
Format: in vitro ADME
Source text: Human CYP 3A4 Induction Assay

First: COc1cc([C@H]2C[C@H](C(F)(F)F)C2)c(F)cc1-n1c(=O)ccc2cc(S(=O)(=O)Nc3ncccn3)ccc21 (atropisomer, axis not shown; (P)) [Example 15, trans-(P)-1-(5-fluoro-2-methoxy-4-(3-(trifluoromethyl)cyclobutyl)phenyl)-2-oxo-N-(pyrimidin-2-yl)-1,2-dihydroquinoline-6-sulfonamide]
Second: COc1cc([C@H]2C[C@H](C(F)(F)F)C2)c(C)cc1-n1c(=O)ccc2cc(S(=O)(=O)Nc3ncccn3)ccc21 (atropisomer, axis not shown; (P)) [Example 37, trans-(P)-1-(2-methoxy-5-methyl-4-(3-(trifluoromethyl)cyclobutyl)phenyl)-2-oxo-N-(pyrimidin-2-yl)-1,2-dihydroquinoline-6-sulfonamide]
The “Hu CYP3A4 mRNA Induction (10 uM POC)” value of the first is lower: 36% for the first, 49.51% for the second.

First: COc1cc(C2CCC2)c(Cl)cc1-n1c(=O)ccc2cc(S(=O)(=O)Nc3ncco3)ccc21 (atropisomer, axis not shown; (P)) [Example 32, (P)-1-(5-chloro-4-cyclobutyl-2-methoxyphenyl)-N-(oxazol-2-yl)-2-oxo-1,2-dihydroquinoline-6-sulfonamide]
Second: COc1cc([C@H]2C[C@H](C(F)(F)F)C2)c(F)cc1-n1c(=O)ccc2c(F)c(S(=O)(=O)Nc3ccon3)ccc21 (atropisomer, axis not shown; (P)) [Example 46, trans-(P)-5-fluoro-1-(5-fluoro-2-methoxy-4-(3-(trifluoromethyl)cyclobutyl)phenyl)-N-(isoxazol-3-yl)-2-oxo-1,2-dihydroquinoline-6-sulfonamide]
The “Hu CYP3A4 mRNA Induction (10 uM POC)” value of the first is higher: 88% for the first, 6.6% for the second.
